In patent US20100105758A1 (Centre de Recherche Public de la Sante, priority 2006, published 2010):
“Also recorded” adds a separate entry of the source. Blank lines part the entries; values can stand above or below the molecule they belong to.

Tests used:
[1] = tested on: THP-1-derived macrophages; assay: MMP-9 secretion by THP-1-derived macrophages, gelatin zymography and densitometry; format: cell-based; details: for MMP-9 secretion (zymography), modulators of Ado metabolism: added alone or in combination, Ado 10 μM, EHNA 10 μM, DIP 10 μM
Procedure: Cells were incubated for 15 min with increasing concentrations of Ado and 10 μM EHNA before differentiation with 150 nM PMA for 48 hours. […] Concentrations of 10 μM Ado and 10 μM EHNA were used in further experiments. […] FIG. 2. […] THP-1 cells were treated for 15 min with Ado and 10 μM EHNA or vehicle before differentiation to macrophages with 150 nM PMA for 48 hours. EHNA, which inhibits Ado deaminase, and DIP, which inhibits Ado transport, were used to enhance endogenous Ado concentration. Gelatinase activity was measured in cell-free conditioned medium by zymography and densitometry. A. A representative zymogram is shown. […] C. Time-course experiment. […] FIG. 3. […] A. THP-1 cells were treated for 15 min with 10 μM Ado and 10 μM EHNA or vehicle before differentiation to macrophages with 150 nM PMA for 48 hours. […] B. THP-1 cells were treated for 15 min with 0.1, 1 or 10 μM of Ado receptors agonists (CPA, A1-specific; CGS21680, A2a-specific; IB-MECA, A3-specific). […] Gelatinase activity was assessed in conditioned medium. […] C. […] Cells were transfected with siRNA specific for A2a, A2b or A3 Ado receptors, incubated for 48 hours to achieve down-regulation of Ado receptors expression, treated for 15 min with 10 μM Ado and 10 μM EHNA or vehicle before differentiation to macrophages with 150 nM PMA for 48 hours. Conditioned medium was analysed by gelatin zymography. […] Cell culture. All cell culture reagents were from Lonza (Verviers, Belgium) unless specified otherwise. Peripheral venous blood was obtained from healthy volunteers. Peripheral blood mononuclear cells were obtained by Ficoll gradient. Monocytes were purified by negative selection using the Monocyte Isolation Kit II (Myltenyi Biotec GmbH, Bergisch Gladbach, Germany). […] Macrophages were incubated for 15 minutes with Ado/EHNA (10 μmol/L) or vehicle, then LPS (100 ng/ml) or vehicle was added and cells were incubated for another 24 hours before harvesting. Cells from the monocyte-like line THP-1 (ATCC, LGC Promochem, Teddington, UK) were propagated at 37° C.-5% CO2 in RPMI 1640 medium supplemented with L-glutamine (2 mM), Penicillin (100 Units/ml), Streptomycin (100 μg/ml), non-essential amino acids solution (1 μM), sodium pyruvate (1 mM), and 10% heat-inactivated fetal calf serum (FCS) (Eurobio, Les Ulys, France). For experiments, FCS in culture medium was reduced to 1%. Cells were treated for 15 min with EHNA vehicle (DMSO), Ado (0.01 to 100 μM), Ado receptors agonists (0.1 to 10 μM), EHNA (10 μM) or Dipyridamole (DIP) (10 μM). Cells were then differentiated into macrophages with 150 nM phorbol myristate actetate (PMA) for 24 hours. Macrophages were subsequently treated with LPS (1 to 1000 ng/ml), fMLP (10^−7 M) or H2O2 (10 mM) for another 24 hours. Analysis of gelatinase activity. Gelatin zymography was performed on culture supernatants to assess secreted MMP-9 activity. Briefly, conditioned medium was loaded on SDS-polyacrylamide gels containing 0.2% gelatin under non reducing conditions. After electrophoresis, gels were washed and incubated overnight at 37° C. in assay buffer (50 mM Tris-HCl, pH 7.6, 200 mM NaCl, 5 mM CaCl2, and 0.02% Brij35). Subsequently, gels were stained in 0.1% Coomassie Blue and destained in 25% ethanol/8% acetic acid. Densitometry was achieved using the Gel Logic 2200 Digital Imaging system and Aida Software (Kodak, Zavemtem, Belgium).

[2] = tested on: THP-1 monocytes; assay: Migration assay, modified Boyden chamber coated with gelatin B, MCP-1 gradient; format: cell-based; details: for inhibition of Ado-enhanced cell migration: pre-incubation with TIMP-1 10 ng/mL or GM6001 10 nM or 1 μM
Procedure: Infiltration of monocytes/macrophages into the myocardium is a hallmark of ventricular remodelling post MI. Cell migration is facilitated by degradation of the ECM by MMP-9. We therefore tested whether the increase in MMP-9 secretion by Ado could improve monocytes migration along a gradient of MCP-1. For this purpose, the top of a modified Boyden chamber was coated with gelatin B and MCP-1 was added in the bottom compartment. Monocytes were treated with Ado before seeding on the microporous membrane of the chamber. […] This effect was inhibited by the synthetic MMP inhibitor GM6001 and the endogenous MMP-9 inhibitor TIMP-1 (FIG. 4).
FIG. 4. Ado increases monocytes migratory capacity. THP-1 monocytes were treated for 24 hours with 10 μM Ado and 10 μM EHNA or vehicle before seeding on the microporous membrane of a modified Boyden chamber pre-coated with gelatin B. 10 ng/mL MCP-1 was added in the bottom compartment. When specified, cells were pre-incubated with TIMP-1 (10 ng/mL) or GM6001 (10 nM or 1 μM) before seeding on the membrane. Cell migration was quantified by fluorescence after 24 hours. […] Results are mean±SD (n=5). * P<0.05 vs no Ado.
Migration assay. Migratory capacity of THP-1 monocytes was studied using a Transwell® system with polycarbonate microporous membranes (5 μm pore size, 24-well chamber, Costar, Lowell, USA). Membranes were coated with a 2% gelatin B solution and allowed to dry at room temperature for 2 hours. MCP-1 (10 ng/mL) was added in the bottom compartment. THP-1 monocytes were cultured in serum- and antibiotic-free medium with or without 10 μM Ado and 10 μM EHNA for 24 hours. Cells were pre-incubated for 30 min with GM 6001 (10 nM or 1 μM) or TIMP-1 (10 ng/mL) before seeding into the upper compartment at a concentration of 7.5×10^4 cells per well. After 24 hours, cells that migrated through the membrane were detached, lysed and stained by the CyQuant GR® dye (Invitrogen) for 15 min. Fluorescence was read with a POLARstar Optima (BMG LABTECH, Champigny-sur-Marne, France) microplate reader (Xex=492 nm, kem=520 nm).

[3] = tested on: MMPs; details: given 24-72 hours post MI; cited from earlier work
[4] = tested on: primary human macrophages; assay: MMP-9 secretion by primary macrophages, ELISA in conditioned medium; format: cell-based; details: Ado and EHNA 10 μmol/L each, 15 min then 24 hours, with or without LPS 100 ng/ml
Procedure: FIG. 1. […] Cell culture. All cell culture reagents were from Lonza (Verviers, Belgium) unless specified otherwise. Peripheral venous blood was obtained from healthy volunteers. Peripheral blood mononuclear cells were obtained by Ficoll gradient. Monocytes were purified by negative selection using the Monocyte Isolation Kit II (Myltenyi Biotec GmbH, Bergisch Gladbach, Germany). […] Macrophages were incubated for 15 minutes with Ado/EHNA (10 μmol/L) or vehicle, then LPS (100 ng/ml) or vehicle was added and cells were incubated for another 24 hours before harvesting. Cells from the monocyte-like line THP-1 (ATCC, LGC Promochem, Teddington, UK) were propagated at 37° C.-5% CO2 in RPMI 1640 medium supplemented with L-glutamine (2 mM), Penicillin (100 Units/ml), Streptomycin (100 μg/ml), non-essential amino acids solution (1 μM), sodium pyruvate (1 mM), and 10% heat-inactivated fetal calf serum (FCS) (Eurobio, Les Ulys, France). For experiments, FCS in culture medium was reduced to 1%. Cells were treated for 15 min with EHNA vehicle (DMSO), Ado (0.01 to 100 μM), Ado receptors agonists (0.1 to 10 μM), EHNA (10 μM) or Dipyridamole (DIP) (10 μM). Cells were then differentiated into macrophages with 150 nM phorbol myristate actetate (PMA) for 24 hours. Macrophages were subsequently treated with LPS (1 to 1000 ng/ml), fMLP (10^−7 M) or H2O2 (10 mM) for another 24 hours. […] ELISA.

[5] = tested on: primary human macrophages; assay: MMP-9 mRNA expression in primary macrophages, quantitative PCR; format: cell-based; details: Ado and EHNA 10 μmol/L each, 24 hours
Procedure: (§1) Cell culture. All cell culture reagents were from Lonza (Verviers, Belgium) unless specified otherwise. Peripheral venous blood was obtained from healthy volunteers. Peripheral blood mononuclear cells were obtained by Ficoll gradient. Monocytes were purified by negative selection using the Monocyte Isolation Kit II (Myltenyi Biotec GmbH, Bergisch Gladbach, Germany). […] Macrophages were incubated for 15 minutes with Ado/EHNA (10 μmol/L) or vehicle, then LPS (100 ng/ml) or vehicle was added and cells were incubated for another 24 hours before harvesting. Cells from the monocyte-like line THP-1 (ATCC, LGC Promochem, Teddington, UK) were propagated at 37° C.-5% CO2 in RPMI 1640 medium supplemented with L-glutamine (2 mM), Penicillin (100 Units/ml), Streptomycin (100 μg/ml), non-essential amino acids solution (1 μM), sodium pyruvate (1 mM), and 10% heat-inactivated fetal calf serum (FCS) (Eurobio, Les Ulys, France). For experiments, FCS in culture medium was reduced to 1%. Cells were treated for 15 min with EHNA vehicle (DMSO), Ado (0.01 to 100 μM), Ado receptors agonists (0.1 to 10 μM), EHNA (10 μM) or Dipyridamole (DIP) (10 μM). Cells were then differentiated into macrophages with 150 nM phorbol myristate actetate (PMA) for 24 hours. Macrophages were subsequently treated with LPS (1 to 1000 ng/ml), fMLP (10^−7 M) or H2O2 (10 mM) for another 24 hours.
(§2) Real time quantitative PCR.

[6] = tested on: THP-1-derived macrophages; assay: MMP-9 mRNA expression in THP-1-derived macrophages, quantitative PCR; format: cell-based; details: THP-1 cells, after 48 hours of differentiation
Procedure: FIG. 2. […] THP-1 cells were treated for 15 min with Ado and 10 μM EHNA or vehicle before differentiation to macrophages with 150 nM PMA for 48 hours. EHNA, which inhibits Ado deaminase, and DIP, which inhibits Ado transport, were used to enhance endogenous Ado concentration. Gelatinase activity was measured in cell-free conditioned medium by zymography and densitometry. A. A representative zymogram is shown. […] C. Time-course experiment.
as §1, with “For experiments, FCS in culture medium was reduced to 1%. Cells were treated for 15 min with EHNA vehicle (DMSO), Ado (0.01 to 100 μM), Ado receptors agonists (0.1 to 10 μM), EHNA (10 μM) or Dipyridamole (DIP) (10 μM). Cells were then differentiated into macrophages with 150 nM phorbol myristate actetate (PMA) for 24 hours. Macrophages were subsequently treated with LPS (1 to 1000 ng/ml), fMLP (10^−7 M) or H2O2 (10 mM) for another 24 hours.” left out
as §2

[7] = tested on: THP-1-derived macrophages; assay: Ado receptor mRNA expression in THP-1-derived macrophages, quantitative PCR; format: cell-based; details: 10 μM Ado and 10 μM EHNA, PMA 48 hours
Procedure: FIG. 3. […] A. THP-1 cells were treated for 15 min with 10 μM Ado and 10 μM EHNA or vehicle before differentiation to macrophages with 150 nM PMA for 48 hours. […] B. THP-1 cells were treated for 15 min with 0.1, 1 or 10 μM of Ado receptors agonists (CPA, A1-specific; CGS21680, A2a-specific; IB-MECA, A3-specific). […] Gelatinase activity was assessed in conditioned medium. […] C. […] Cells were transfected with siRNA specific for A2a, A2b or A3 Ado receptors, incubated for 48 hours to achieve down-regulation of Ado receptors expression, treated for 15 min with 10 μM Ado and 10 μM EHNA or vehicle before differentiation to macrophages with 150 nM PMA for 48 hours. Conditioned medium was analysed by gelatin zymography.
Cell culture. All cell culture reagents were from Lonza (Verviers, Belgium) unless specified otherwise. Peripheral venous blood was obtained from healthy volunteers. Peripheral blood mononuclear cells were obtained by Ficoll gradient. Monocytes were purified by negative selection using the Monocyte Isolation Kit II (Myltenyi Biotec GmbH, Bergisch Gladbach, Germany). […] Macrophages were incubated for 15 minutes with Ado/EHNA (10 μmol/L) or vehicle, then LPS (100 ng/ml) or vehicle was added and cells were incubated for another 24 hours before harvesting. […]
as §2

[8] = in combination with lidocaine or primary angioplasty; cited from earlier work
[9] = tested on: neutrophils; details: through A2a receptor; cited from earlier work

Molecule: CCCCCC[C@@H]([C@@H](C)O)n1cnc2c(N)ncnc21 (racemic) [EHNA]
MMP-9 secretion (zymography), modulators of Ado metabolism ([1]; PMA 48 hours): triggered MMP-9 secretion

Molecule: OCCN(CCO)c1nc(N2CCCCC2)c2nc(N(CCO)CCO)nc(N3CCCCC3)c2n1 [DIP, Dipyridamole]
MMP-9 secretion (zymography), modulators of Ado metabolism ([1]; PMA 48 hours): triggered MMP-9 secretion

Molecule: CNC(=O)[C@H](Cc1c[nH]c2ccccc12)NC(=O)[C@@H](CC(=O)NO)CC(C)C [GM6001, (R)-N-4-Hydroxy-N1-[(S)-2-(1H-indol-3-yl)-1-methylcarbamoly-ethyl]-2-isobutyl-succinamide]
inhibition of Ado-enhanced cell migration [2]: partly prevented; also recorded: inhibited

Molecule: CNC(=O)[C@H]1O[C@@H](n2cnc3c(NCc4cccc(I)c4)ncnc32)[C@H](O)[C@@H]1O [IB-MECA, 1-deoxy-1-[6-[[(3-iodophenyl)methyl]amino]-9H-purine-9-yl]-N-methyl-Dribofuranuronamide]
MMP-9 secretion with Ado receptor agonists ([1]; 0.1, 1 or 10 μM agonist for 15 min, EHNA omitted, PMA 48 hours): increase MMP-9 secretion to the same extent as Ado

Molecule: COc1ccc(C(=O)Nc2ccc(S(=O)(=O)NC(CC#CCN3CCOCC3)C(=O)O)cc2)cc1 (stereo not shown) [PG-116800]
outcome after MI [3]: did not improve outcome
prevention of LV remodelling after MI [3]: failed to prevent LV remodelling

A2b receptor expression (mRNA) [7]: more than two-fold increase
A3 receptor expression (mRNA) [7]: more than two-fold increase
Molecule: Nc1ncnc2c1ncn2[C@@H]1O[C@H](CO)[C@@H](O)[C@H]1O [adenosine]
MMP-9 secretion in cell supernatant as measured by ELISA [4]: mild but significant increase
MMP-9 secretion in cell supernatant as measured by ELISA ([4]; listed as Ado): significantly increased
MMP-9 mRNA expression [5]: increased
increase of MMP-9 production ([1]; 100 μM Ado with 10 μM EHNA, 15 min before differentiation with 150 nM PMA for 48 hours): 3 fold
MMP-9 secretion (zymography), modulators of Ado metabolism ([1]; PMA 48 hours): triggered MMP-9 secretion
incubation period necessary to reproduce the effect of Ado on MMP-9 ([1]; time-course experiment, zymography of culture medium): at least 18 hours
MMP-9 mRNA expression [6]: more than two-fold increase
cell migration through the gelatin layer ([2]; 10 μM Ado and 10 μM EHNA for 24 hours, MCP-1 10 ng/mL, migration after 24 hours): enhanced cell migration
cardiac function of patients with MI [8]: improved cardiac function
MMP-9 secretion by neutrophils [9]: inhibits MMP-9 secretion

Molecule: TIMP-1: recombinant human protein TIMP-1 (R&D Systems), endogenous MMP-9 inhibitor
inhibition of Ado-enhanced cell migration [2]: partly prevented; also recorded: inhibited
